Target: T1, aldose reductase (Bos taurus, UniProt P16116)
T1 construct: partially purified aldose reductase enzyme obtained from calf lens; from tissue; host or cells: calf lens
Test: inhibition of aldose reductase enzyme activity (procedure of U.S. Pat. No. 3,821,383, based on Hayman et al.)
Format: biochemical
Conditions: partially purified aldose reductase from calf lens, / = results of duplicate tests; for inhibition at 100 µM: 10^-4 M
From the text: Pat. No. 3,821,383 and based on the procedure of Hayman et. al., Journal of Biological Chemistry, 240, 877 (1965). The substrate employed was partially purified aldose reductase enzyme obtained from calf lens. The results obtained with each compound at a concentration of 10^-4 M are expressed as percent inhibition of enzyme activity.

inhibition at 100 µM [%]	% Inhibition at 10^-4 M (aldose reductase enzyme activity) [%]	Structure (SMILES)
82	89	O=C(O)C1CCOc2c(Cl)cc(Cl)cc21 (stereo not drawn) [Example 8, 6,8-dichloro-3,4-dihydro-2H-1-benzopyran-4-carboxylic acid]
70		O=C(O)C1CCSc2ccc(Cl)cc21 (stereo not drawn) [Example 16, 6-chloro-3,4-dihydro-2H-1-benzothiopyran-4-carboxylic acid]
69		O=C(O)CC1CCOc2ccc(Cl)cc21 (stereo not drawn) [Example 18, 6-chloro-3,4-dihydro-2H-1-benzopyran-4-acetic acid]
92	76	O=C(O)C1CCSc2cc(Cl)c(Cl)cc21 (stereo not drawn) [Example 4, 6,7-dichloro-3,4-dihydro-2H-1-benzothiopyran-4-carboxylic acid]
85	81	O=C(O)C1CCOc2ccc(Cl)cc21 (stereo not drawn) [Example 12, 6-chloro-3,4-dihydro-2H-1-benzopyran-4-carboxylic acid]
74	67	O=C(O)C1CCOc2c(Cl)cc(-c3ccccc3)cc21 (stereo not drawn) [Example 2, 6-phenyl-8-chloro-3,4-dihydro-2H-1-benzopyran-4-carboxylic acid]
88	90	O=C(O)C1CCOc2c1cc(Cl)c1ccccc21 (stereo not drawn) [Example 14, 6-chloro-3,4-dihydro-2H-naphtho[1,2-b]pyran-4-carboxylic acid]
71		O=C(O)C1CCOc2ccc(F)cc21 (stereo not drawn) [Example 10, 6-fluoro-3,4-dihydro-2H-1-benzopyran-4-carboxylic acid]
87	89	Cc1cc(Cl)cc2c1OCCC2C(=O)O (stereo not drawn) [Example 6, 6-chloro-8-methyl-3,4-dihydro-2H-1-benzopyran-4-carboxylic acid]

From patent US4210663A, “Halogen substituted benzopyran- and benzothiopyran-4-carboxylic acids” (Pfizer Inc., priority 1978, dated 1980)
